For 90 compounds, melting point results are on record in a melting point compilation (Tetko et al.; mined from patent text by program, amines drawn as free bases though some values may be those of a salt).

As to `OCC1(O)CSC(=S)N1c1ccccn1` (stereo not given), the melting point was 134 to 135 °C.
`COC(=O)C=C(Nc1cc2c(cc1OCc1ccccc1)N(C(=O)OC(C)(C)C)CC2COC(C)=O)C(F)(F)F` (stereo not given): the melting point was 114 to 115 °C.
Consider `O=c1[nH]c2ccccc2c(=O)cc1NCCO`, for which the melting point worked out at 207 °C.
The same measure for `O=c1nc(-c2cccc(CS(=O)(=O)Cc3ccccc3)n2)sc2ccccc12`: 246 to 248 °C; for `CCOC(=O)c1cn(CC)c2cc3c(cc2c1=O)OCO3`: 177 to 178 °C.
`COc1cc2ncc(C#N)c(Sc3cccc(Br)c3)c2cc1OC` yielded a melting point of 173 to 175 °C.
With `CCOC(=O)c1cc(=O)c(O)c(-c2ccc(OC)cc2)o1` the figure was 163 to 164 °C.
`CCOC(=O)c1cn(-c2nc(NC(C)(C)C)c(F)cc2Cl)c2c(Cl)c(F)c(F)cc2c1=O`: the melting point was 210 to 213 °C.
The compound `O=C1Cc2cc3c(cc2C(c2ccco2)=NN1)OCO3` yielded a melting point of 234 to 236 °C.
Compound `COC(=O)CCSCc1csc(NC(N)=NCC(F)(F)F)n1` came in with a melting point of 96 to 98 °C.
For the compound `O=c1[nH]c2cc(F)ccc2n1-c1cc(Cl)ccc1O`, the melting point was in the range of 256 to 260 °C.
With `O=C(O)CCc1cc2cc(Cl)ccc2n1S(=O)(=O)c1ccc2ccccc2c1` the figure was 160 °C; with `COc1cc(NCCCCCCO)c2nccc(C)c2c1`, 97 to 99 °C; with `Cn1ccc2ccc(-c3ccc(C(F)(F)F)cc3)cc21`, 100 °C.
As to `CCCCc1nc2c(C#N)ncc(C)c2[nH]1`, the melting point was in the range of 197 to 198 °C.
`CC(=O)Nc1c(N(C)C)cnn(-c2ccccc2)c1=O` gave a melting point of 186 to 187 °C.
`COC(=O)CCCc1cc2nc(Cl)ccc2n1S(=O)(=O)c1ccc(OC(F)(F)F)cc1` displayed a melting point of 109 °C.
In the case of `CC(C)(C)[Si](C)(C)O[Si](C)(C)C(C)(C)C`, the melting point lay in the range of 94 to 95 °C.
As for `Cc1sc(-c2ccc(C#N)cc2)nc1O`, the melting point was 220 to 221 °C.
Regarding `CS(=O)(=O)c1ccc(-c2ccccc2C=O)cc1`, the melting point lay within 115 to 116 °C.
In turn, `Clc1nccnc1Oc1ccc(Oc2ccccc2)cc1` returned a melting point of 53 to 55 °C.
Consider `O=C(O)CCC/C=C\C[C@@H]1[C@H]2CC[C@H](C2)[C@H]1NC(=O)c1csc2ccc(O)cc12`, for which the melting point is 141 to 142 °C.
For `CC1(C)[C@@H]2CC[C@@]1(C)C[C@H]2OC(=O)C1CCC(C(=O)O[C@@H]2C[C@]3(C)CC[C@H]2C3(C)C)CC1` (stereo not given in full), the melting point was found to be 77 °C.
On to `OCc1ccc2cccc3c2c1-c1ccccc1-3`, for which the melting point is 147 to 185 °C.
As to `Nc1ccnc(C(F)(F)F)c1`, the melting point is 56 to 58 °C.
As for `O=C1CCC(c2ccc(CCCCNC(=O)c3cccnc3)cc2)=NN1`, the melting point was 178 to 179 °C.
`COC(=O)COc1cccc(-c2nc(COc3ccc(COc4nn(-c5ccccc5)cc4C=O)cc3OC)c(C)o2)c1` showed a melting point of 107 to 109 °C.
Turning to `Cc1ccc2cc(-c3cccc4ccccc34)ccc2n1`, the melting point was 111 °C.
The same measure for `CCCCCCCCCCCCCCCCC[C@@H](O)C[C@H]1OC(=O)[C@@H]1CCC`: 84 to 85 °C; for `CCCCCCCCCCCCCCOc1ccc(C(=O)NCc2ccccn2)cc1`: 91 to 93 °C; for `CC(C)CCNc1nc(N2CCCCC2)nc2c(NCCC(C)C)nc(N3CCCCC3)nc12`: 192 to 194 °C.
Compound `Cc1nnc2n1-c1sc(C(C)OC(=O)C(C)(C)C)cc1C(c1ccccc1Cl)=NC2` (stereo not given) displayed a melting point of 148 to 151 °C.
`O=C(O)c1cccc2c1Oc1c(cccc1C(=O)O)N2` gave a melting point of 146 °C.
As for `Cc1nc2cc(NC(=O)c3cc4cc(F)cnc4n3Cc3ccncc3)ccc2n1C`, the melting point was in the range of 263 to 265 °C.
`CC1Oc2ccc(Br)c(C=NO)c2O1` (stereo not given) came in with a melting point of 208 to 209 °C.
With `CN1CCC(=O)N(c2ccccc2Cl)C1=O` the figure was 120 to 123 °C.
Take `NS(=O)(=O)c1cccc(-c2cccc(-c3nc(-c4ccc(C(F)(F)F)c(OCC(F)(F)F)c4)cc(C(F)(F)F)n3)c2)c1`: the melting point was 188 °C.
With `CCc1nc2c(N)nc3ccccc3c2n1CCCCS(=O)(=O)N(C)C` the figure was 193 to 195 °C; with `CC(C)(C#N)c1c(Cl)cc(-n2ncc(=O)[nH]c2=O)cc1Cl`, 180 °C; with `Cc1sc2c(Br)c3ccccc3c(-c3cc(C(C)C)c(OS(=O)(=O)c4ccc(C(=O)O)c(O)c4)c(C(C)C)c3)c2c1C`, over 225 °C.
Compound `CCOC(=O)[C@@H](NS(=O)(=O)c1ccc(N2CCC(=O)CC2)cc1)C(C)C` returned a melting point of 77 to 80 °C.
As to `COc1ccc(-n2c(=O)cc(C(F)(F)F)n(N)c2=O)cc1`, the melting point lay in the range of 176 to 178 °C.
`COc1cc(Nc2nc3cccc(-c4ccc(S(=O)(=O)N(C)C)cc4)c3o2)cc(OC)c1OC` displayed a melting point of 230 to 233 °C.
Consider `CCOC(=O)Nc1ccc(C(=O)OC)cc1`, for which the melting point lay within 159 to 162 °C.
Consider `NCc1c(-c2ccc(O)cc2)nnn1-c1ccc(C(F)(F)F)cc1Cl`, for which the melting point is 96.5 to 98.9 °C.
`CCc1onc(-c2ccccc2)c1C(=O)NCCCN1CCN(c2ccccc2OCC(F)(F)F)CC1` yielded a melting point of 102 to 104 °C.
In turn, `CCCC(=O)SCC(Cc1ccccc1)C(=O)Nc1cccc(C(=O)O)c1C` (stereo not given) registered a melting point of 136 to 141 °C.
With `CCCCCCCC[Si](C)(C)CCSCCNC(=O)n1cc(F)c(=O)[nH]c1=O` the figure was 60 to 61 °C.
The same measure for `CC(=Cc1ccc(O)cc1)C(=O)O`: 204 to 205 °C; for `CCCCCCCCCCCCS(=O)(=O)C(C#N)=C1C=C(N2CCCC2)CC(C)(C)C1`: 114 to 115 °C.
The same measure for `O=C(O)c1cc(-c2cccc(C(F)(F)F)c2)nc(C(F)(F)F)c1`: 185 to 186 °C.
Consider `O=[N+]([O-])c1nn(-c2c(Cl)cc(C(F)(F)F)cc2Cl)cc1S(=O)C(F)(F)F` (stereo not given), for which the melting point is 124 to 130 °C.
In the case of `O=C(CP(=O)(O)O)NCc1ccccc1`, the melting point was in the range of 130 to 134 °C.
In turn, `CCCc1nn(-c2ccc(C(F)(F)F)cn2)cc1CCCC=O` returned a melting point of 71 to 72 °C.
With `OC(CS)(Cn1cncn1)c1ccc(Cl)cc1Cl` (stereo not given) the figure was 139 to 142 °C; with `COC(=O)c1cncc(OCc2cccc(OCc3nc(-c4ccccc4)oc3C)c2)c1`, 96 to 97 °C.
In turn, `CCc1nn2c(I)cccc2c1N(CC)CCF` came in with a melting point of 51.2 to 53.6 °C.
With `COc1ccc(C2=NN(c3ccc(OCCBr)cc3)C(=O)[C@@H]3CC=CC[C@H]23)cc1OC` the figure was 40 to 45 °C; with `CC(C)(C)c1cc(C=Cc2n[nH]c(=O)[nH]2)cc(C(C)(C)C)c1O`, 280 to 284 °C; with `O=C1CCC(c2ccc(Cl)cc2)CN1CNC(=S)NCN1CC(c2ccc(Cl)cc2)CCC1=O` (stereo not given), 212 to 213 °C.
Consider `CC(C)(O)C[C@@H]1CO[C@](C)([C@H]2CC[C@H]3C(=O)CCC[C@@]32C)C1`, for which the melting point turned out to be 82 °C.
Take `C=CCOc1ccc2c(c1)CCNC2=O`: the melting point was in the range of 105 to 107 °C.
The compound `CC1(C=NO)OCCc2c1[nH]c1ccccc21` (stereo not given) gave a melting point of 176 to 178 °C.
In turn, `C(=Cc1nc2ccccc2s1)c1ccc2cc(N(c3ccccc3)c3ccccc3)ccc2c1` showed a melting point of 181 to 185 °C.
Consider `C=CCC(=O)NCCN1CCOc2ccc(OC)cc21`, for which the melting point fell in the range of 80 to 81 °C.
The compound `Cc1cc(C)n(-c2ccc(C(N)=O)nn2)n1` displayed a melting point of 256 to 257 °C.
Consider `COc1cc2cc3ncc(C#N)c(Cl)c3cc2cc1OC`, for which the melting point is over 265 °C.
`O=C1CN=C(C2CCCCC2)c2cc(Cl)ccc2N1` came in with a melting point of 210 °C.
The compound `NC(=O)Cc1ccccc1CSc1nc2ccccc2[nH]1` registered a melting point of 218 to 222 °C.
Regarding `Cc1ccc(CON2C(C)(C)CC(O)CC2(C)C)cc1`, the melting point fell in the range of 92.5 to 93 °C.
`Cc1cc2cc(CN3CCCC3)cnc2cc1NC(=O)c1ccc(-c2ccc(F)c(F)c2)cc1` displayed a melting point of 220 to 223 °C.
In turn, `Cc1cccc(-c2nc3ccccc3n2Cc2ccccc2Cl)c1` showed a melting point of 117 °C.
The same measure for `O=c1[nH]ccn1-c1ccc(F)cc1F`: 192 to 194 °C; for `Cc1c(Cl)c(C(C)(C)C)c(Cl)c(C)c1S(=O)(=O)Cl`: 148 °C.
As to `CSC1=NC(=O)C(=Cc2cccc(-c3cc(F)c(O)c(C45CC6CC(CC(C6)C4)C5)c3)c2)S1`, the melting point fell in the range of 270 to 271 °C.
The compound `CCCCCOC(=O)CNC(=O)c1nc(Cl)c2ccc(OC(C)C)cc2c1O` had a melting point of 75 to 77 °C.
The same measure for `CCOC(=O)C(=NO)c1ccc(F)cc1`: 117 to 118 °C; for `Cc1cc(C#N)cc(C(=O)c2c(C(C)C)c(=O)[nH]c(=O)n2Cc2cc(F)cc(NC(=O)C(F)(F)F)c2)c1`: 263 to 264 °C; for `Clc1nc2cc(Cl)c(Cl)cc2[nH]1`: 212 to 214 °C.
Compound `O=C(c1ccccc1)n1c2cc(O)c(O)cc2c2ccc(O)c(O)c21` gave a melting point of 242 to 243 °C.
With `COc1ncccc1-c1nc(C(N)=O)c2[nH]c(=O)n(-c3ccccc3)c2n1` the figure was 279 to 281 °C.
The compound `CN1CCC(c2c[nH]c3ccc(Sc4ccccn4)cc23)CC1` came in with a melting point of 83 °C.
For `NC(=S)Nc1ccc(F)cc1-c1ccccc1`, the melting point fell in the range of 188 to 190 °C.
`c1ccc(CCC2CCN(Cc3nc4ccccc4[nH]3)CC2)cc1`: the melting point is 170 °C.
`CCOc1ccc(C=[N+]([O-])C2CCCC2)cc1` gave a melting point of 95.1 °C.
`O=C(NCCO[N+](=O)[O-])C1COc2ccccc2O1` (stereo not given) gave a melting point of 69 to 71 °C.
`NC(=O)c1ncn2c1CN=C(c1ccccc1Br)c1cc(F)ccc1-2` gave a melting point of 298 to 299 °C.
`O=C(O)c1cnc(Nc2ccccc2F)[nH]c1=O` yielded a melting point of 300 °C.
The same measure for `N#Cc1nn(-c2c(Cl)cc(OC(F)(F)F)cc2Cl)cc1C(Cl)=C(Cl)Br`: 143 to 144 °C; for `Cc1[nH]cnc1CSCCNC(=O)NCCCCN(C)CCC(c1ccc(Cl)cc1)c1ccccn1` (stereo not given): 97 to 98 °C.

Usually melting point stands for the temperature, or range, at which the solid turns liquid.
